“And” between values parts separate entries of the source, which are not always exact repeats. Equal entries are not always repeated. Inconclusive results and toxic doses are left out. Rule as the data show it: active = T/C of 150% or more; inactive = T/C below 125%.
Tested on: L1210 leukemia ip in BDF1 mice, survival T/C
Test: NCI In Vivo Anticancer Drug Screen. Data for tumor model L1210 Leukemia (intraperitoneal) in B6D2F1 (BDF1) mice
Settings: endpoint: mean survival time, higher = longer survival
Procedure, shortened: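 Transplanted-tumor mice were given test agent; controls received vehicle only. Survival readings from the two groups were divided (treated over control).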

[1] = dose: 100.0 mg/kg/injection, schedule: Q01DX001 (ip), vehicle: carboxymethylcellulose (CMC)
[2] = dose: 200.0 mg/kg/injection, schedule: Q01DX001 (ip), vehicle: carboxymethylcellulose (CMC)
[3] = dose: 400.0 mg/kg/injection, schedule: Q01DX001 (ip), vehicle: carboxymethylcellulose (CMC)
[4] = dose: 100.0 mg/kg/injection, schedule: Q01DX001 (ip), vehicle: saline
[5] = dose: 100.0 mg/kg/injection, schedule: Q01DX009 (ip), vehicle: saline
[6] = dose: 200.0 mg/kg/injection, schedule: Q01DX001 (ip), vehicle: saline
[7] = dose: 400.0 mg/kg/injection, schedule: Q01DX001 (ip), vehicle: saline
[8] = dose: 100.0 mg/kg/injection, schedule: Q01DX009 (ip), vehicle: Klucel (hydroxypropylcellulose) (HPC)
[9] = dose: 100.0 mg/kg/injection, schedule: Q04DX003 (ip), vehicle: Klucel (hydroxypropylcellulose) (HPC)
[10] = dose: 200.0 mg/kg/injection, schedule: Q01DX009 (ip), vehicle: Klucel (hydroxypropylcellulose) (HPC)
[11] = dose: 200.0 mg/kg/injection, schedule: Q04DX003 (ip), vehicle: Klucel (hydroxypropylcellulose) (HPC)
[12] = dose: 400.0 mg/kg/injection, schedule: Q04DX003 (ip), vehicle: Klucel (hydroxypropylcellulose) (HPC)
[13] = dose: 100.0 mg/kg/injection, schedule: Q01DX001 (ip), vehicle: Klucel (hydroxypropylcellulose) (HPC)
[14] = dose: 200.0 mg/kg/injection, schedule: Q01DX001 (ip), vehicle: Klucel (hydroxypropylcellulose) (HPC)
[15] = dose: 100.0 mg/kg/injection, schedule: Q04DX003 (ip), vehicle: saline with Tween-80
[16] = dose: 200.0 mg/kg/injection, schedule: Q04DX003 (ip), vehicle: saline with Tween-80
[17] = dose: 400.0 mg/kg/injection, schedule: Q04DX003 (ip), vehicle: saline with Tween-80
[18] = dose: 100.0 mg/kg/injection, schedule: Q01DX009 (ip), vehicle: saline with Tween-80
[19] = dose: 200.0 mg/kg/injection, schedule: Q01DX009 (ip), vehicle: saline with Tween-80
[20] = dose: 400.0 mg/kg/injection, schedule: Q01DX009 (ip), vehicle: saline with Tween-80
[21] = dose: 50.0 mg/kg/injection, schedule: Q01DX009 (ip), vehicle: saline with Tween-80
[22] = dose: 200.0 mg/kg/injection, schedule: Q01DX009 (ip), vehicle: saline
[23] = dose: 400.0 mg/kg/injection, schedule: Q01DX009 (ip), vehicle: saline

Measured: T/C

CCC1CCN(CC)CC1
inactive: dose: 10.0 mg/kg/injection, schedule: Q01DX001 (ip), vehicle: saline 101 % of control | dose: 10.0 mg/kg/injection, schedule: Q01DX009 (ip), vehicle: saline 92 % of control and 102 % of control | dose: 10.0 mg/kg/injection, schedule: Q04DX002 (ip), vehicle: saline 100 % of control and 109 % of control | dose: 10.0 mg/kg/injection, schedule: Q04DX003 (ip), vehicle: saline 102 % of control | dose: 20.0 mg/kg/injection, schedule: Q01DX001 (ip), vehicle: saline 101 % of control | dose: 20.0 mg/kg/injection, schedule: Q01DX009 (ip), vehicle: saline 101 % of control and 108 % of control | dose: 20.0 mg/kg/injection, schedule: Q04DX002 (ip), vehicle: saline 100 % of control and 117 % of control | dose: 20.0 mg/kg/injection, schedule: Q04DX003 (ip), vehicle: saline 103 % of control | dose: 40.0 mg/kg/injection, schedule: Q01DX001 (ip), vehicle: saline 95 % of control | dose: 40.0 mg/kg/injection, schedule: Q01DX009 (ip), vehicle: saline 94 % of control | dose: 40.0 mg/kg/injection, schedule: Q04DX002 (ip), vehicle: saline 94 % of control and 102 % of control | dose: 40.0 mg/kg/injection, schedule: Q04DX003 (ip), vehicle: saline 102 % of control

CS(=O)(=O)OCCCc1nc2ccccc2n1S(C)(=O)=O
inactive: [1] 110 % of control | [2] 110 % of control | [3] 104 % of control

N#CCCOCC(COCCC#N)OCCC#N
inactive: dose: 50.0 mg/kg/injection, schedule: Q01DX001 (ip), vehicle: saline 106 % of control | dose: 50.0 mg/kg/injection, schedule: Q01DX009 (ip), vehicle: saline 124 % of control | [4] 108 % of control | [5] 108 % of control | [6] 101 % of control | [7] 92 % of control

Cc1cccc(C)c1NC(=O)C(Cl)c1ccccc1 (stereo not given)
inactive: [8] 107 % of control | [9] 98 % of control | [10] 91 % of control | [11] 98 % of control | dose: 400.0 mg/kg/injection, schedule: Q01DX009 (ip), vehicle: Klucel (hydroxypropylcellulose) (HPC) 98 % of control | [12] 98 % of control

COCCOC(=O)C(=O)OCCOC
inactive: dose: 50.0 mg/kg/injection, schedule: Q01DX009 (ip), vehicle: Klucel (hydroxypropylcellulose) (HPC) 95 % of control | [13] 97 % of control | [8] 97 % of control | [14] 90 % of control | [10] 93 % of control

CC(C)=C1C(=O)ON(c2ccccc2)C1=O
inactive: dose: 50.0 mg/kg/injection, schedule: Q01DX001 (ip), vehicle: Klucel (hydroxypropylcellulose) (HPC) 100 % of control | [13] 100 % of control | [9] 105 % of control | [14] 105 % of control | [11] 110 % of control | dose: 400.0 mg/kg/injection, schedule: Q01DX001 (ip), vehicle: Klucel (hydroxypropylcellulose) (HPC) 104 % of control | [12] 105 % of control

COc1cc(C(=O)NOCc2cccc(C(F)(F)F)c2)cc(OC)c1OC
inactive: [15] 98 % of control | [16] 98 % of control | [17] 101 % of control

O=C(O)CNC(=O)C(Br)Cc1ccccc1 (stereo not given)
inactive: [18] 96 % of control | [19] 89 % of control | [20] 89 % of control

N#CSCCC(c1ccccc1)(c1ccccc1)c1ccccc1
inactive: [21] 90 % of control | [18] 90 % of control | [19] 90 % of control

CCOC(=O)C1(C(=O)O)CC2C(C)C=CC(C)C2C1 (stereo not given)
inactive: [9] 100 % of control | [11] 94 % of control | [12] 91 % of control

Nc1ccc(CCc2ccccc2)cc1
inactive: [21] 97 % of control

COC(=O)C1CCC1(C#N)C(=O)OC (stereo not given)
inactive: [5] 93 % of control | dose: 100.0 mg/kg/injection, schedule: Q04DX003 (ip), vehicle: saline 98 % of control | [22] 92 % of control | dose: 200.0 mg/kg/injection, schedule: Q04DX003 (ip), vehicle: saline 98 % of control | [23] 109 % of control | dose: 400.0 mg/kg/injection, schedule: Q04DX003 (ip), vehicle: saline 106 % of control

NC(=O)C(Cl)CCl (stereo not given)
inactive: dose: 50.0 mg/kg/injection, schedule: Q04DX002 (ip), vehicle: Klucel (hydroxypropylcellulose) (HPC) 104 % of control | dose: 100.0 mg/kg/injection, schedule: Q04DX002 (ip), vehicle: Klucel (hydroxypropylcellulose) (HPC) 101 % of control | dose: 200.0 mg/kg/injection, schedule: Q04DX002 (ip), vehicle: Klucel (hydroxypropylcellulose) (HPC) 104 % of control

C/C(=N\NS(=O)(=O)c1ccc(C)cc1)C1CCSC1 (stereo not given)
inactive: [18] 93 % of control | [15] 111 % of control | [19] 101 % of control | [16] 98 % of control | [20] 90 % of control | [17] 96 % of control

CC12CCC=CC1=CC(=O)CC2 (stereo not given)
inactive: dose: 75.0 mg/kg/injection, schedule: Q01DX001 (ip), vehicle: other 98 % of control | dose: 150.0 mg/kg/injection, schedule: Q01DX001 (ip), vehicle: other 106 % of control | dose: 300.0 mg/kg/injection, schedule: Q01DX001 (ip), vehicle: other 103 % of control

Nc1ccc(S(=O)(=O)NS(=O)(=O)c2ccccc2)cc1
inactive: [4] 95 % of control | [6] 93 % of control | [7] 101 % of control

C=CCS(=O)(=O)c1ccccc1
inactive: [5] 106 % of control | [22] 98 % of control | [23] 101 % of control

COC12OCC(O)C1OC(=O)C2O (stereo not given)
inactive: dose: 50.0 mg/kg/injection, schedule: Q04DX002 (ip), vehicle: saline 91 % of control | dose: 100.0 mg/kg/injection, schedule: Q04DX002 (ip), vehicle: saline 91 % of control | dose: 200.0 mg/kg/injection, schedule: Q04DX002 (ip), vehicle: saline 95 % of control

Cc1ccc(O)c(C(=O)C(C)CCCC(C)C)c1 (stereo not given)
inactive: dose: 75.0 mg/kg/injection, schedule: Q01DX009 (ip), vehicle: Klucel (hydroxypropylcellulose) (HPC) 89 % of control | dose: 150.0 mg/kg/injection, schedule: Q01DX009 (ip), vehicle: Klucel (hydroxypropylcellulose) (HPC) 94 % of control | dose: 300.0 mg/kg/injection, schedule: Q01DX009 (ip), vehicle: Klucel (hydroxypropylcellulose) (HPC) 100 % of control

CN(C)C1c2ccccc2-c2ccc(N)cc21 (stereo not given)
inactive: [1] 94 % of control

NC(=O)c1cccn1-c1cccc2c(-n3cccc3C(N)=O)cccc12
inactive: dose: 50.0 mg/kg/injection, schedule: Q04DX002 (ip), vehicle: saline with Tween-80 89 % of control

CC(=O)Nc1ccc(/C=N\NC(=O)c2ccco2)cc1
inactive: dose: 100.0 mg/kg/injection, schedule: Q01DX001 (ip), vehicle: other 87 % of control | dose: 200.0 mg/kg/injection, schedule: Q01DX001 (ip), vehicle: other 90 % of control | dose: 400.0 mg/kg/injection, schedule: Q01DX001 (ip), vehicle: other 87 % of control

CCOC(=O)Nc1cccc([N+](=O)[O-])c1
inactive: dose: 100.0 mg/kg/injection, schedule: Q04DX003 (ip), vehicle: other 93 % of control | dose: 200.0 mg/kg/injection, schedule: Q04DX003 (ip), vehicle: other 102 % of control | dose: 400.0 mg/kg/injection, schedule: Q04DX003 (ip), vehicle: other 91 % of control

CCC(=N)C1CCCCC1
inactive: dose: 75.0 mg/kg/injection, schedule: Q01DX001 (ip), vehicle: carboxymethylcellulose (CMC) 102 % of control | dose: 150.0 mg/kg/injection, schedule: Q01DX001 (ip), vehicle: carboxymethylcellulose (CMC) 93 % of control

O=c1[nH]c2c(Cl)cccc2c2ccccc12
inactive: [1] 100 % of control | [2] 107 % of control | [3] 102 % of control
